Consider 18 molecules from PMC6155626 (Molecules : A Journal of Synthetic Chemistry and Natural …, 2016).

Structures are written as SMILES. ≈ marks a conversion by molar mass, not a printed value.

The subject of series [1] is Xanthomonas oryzae pv. oryzae. The series can be described thus: microbe, parasite or virus in culture. The series is classed as cell-based. The conditions noted are these: for EC50 / inhibition at 100 µg/mL / inhibition at 200 µg/mL: Xanthomonas oryzae; for inhibition at 100 µg/mL: read-out: Inhibition rate, X. oryzae, 100 μg/mL, average of three replicates; for inhibition at 200 µg/mL: read-out: Inhibition rate, X. oryzae, 200 μg/mL, average of three replicates; for Inhibition rate: X. oryzae, 200 μg/mL, average of three replicates.

The test system of series [2] is Xanthomonas axonopodis pv. citri. The series can be described thus: microbe, parasite or virus in culture. The series is classed as cell-based. The conditions noted are these: Xanthomonas axonopodis; for inhibition at 100 µg/mL / inhibition at 200 µg/mL: read-out: Inhibition rate.
The test system of another series is Ralstonia solanacearum. The series can be described thus: microbe, parasite or virus in culture. Particulars: Ralstonia solanacearum; for EC50: R. solanacearum; for inhibition at 100 µg/mL / inhibition at 200 µg/mL: read-out: Inhibition rate. The class given is cell-based.

The term EC50 denotes the concentration giving half of the maximal effect. A higher EC50 goes with weaker potency. As usually defined, the melting point is the temperature of the solid-liquid transition.

As for `CS(=O)(=O)c1nnc(COc2ccc(Br)cc2)o1` [Compound 5I-3, 2-((4-Bromophenoxy)methyl)-5-(methylsulfonyl)-1,3,4-oxadiazole], the melting point is 97 to 99 °C. Also, in series [1], the EC50 is 1.67 ± 0.22 µg/mL (≈ 5.01 µM), the inhibition at 100 µg/mL was determined as 100% and the inhibition at 200 µg/mL amounted to 100%. For the same molecule, in series [2], the EC50 worked out at 24.9 ± 2.52 µg/mL (≈ 74.7 µM), the inhibition at 100 µg/mL was 90% and the inhibition at 200 µg/mL is 91%. Further, in the series with Ralstonia solanacearum, the EC50 was 19.6 ± 0.98 µg/mL (≈ 58.9 µM), the inhibition at 100 µg/mL was found to be 100% and the inhibition at 200 µg/mL was found to be 100%.
Consider `Cc1cc(Cl)ccc1OCc1nnc(S(C)(=O)=O)o1` [Compound 5I-5, 2-((4-Chloro-2-methylphenoxy)methyl)-5-(methylsulfonyl)-1,3,4-oxadiazole], for which, in series [1], it took 1.67 ± 0.16 µg/mL (≈ 5.52 µM) to reach a half-maximal effect (EC50), the inhibition at 100 µg/mL turned out to be 100% and the inhibition at 200 µg/mL is 100%. In series [2], it took 96.8 ± 5.78 µg/mL (≈ 320 µM) to reach a half-maximal effect (EC50), the inhibition at 100 µg/mL was 54% and the inhibition at 200 µg/mL is 100%. Also, in the series with Ralstonia solanacearum, the response was half-maximal at 14.9 ± 1.27 µg/mL (≈ 49.3 µM) (EC50), the inhibition at 100 µg/mL turned out to be 100% and the inhibition at 200 µg/mL came to 100%.
Turning to `CS(=O)(=O)c1nnc(COc2ccccc2)o1` [Compound 5I-6, 2-(Methylsulfonyl)-5-(phenoxymethyl)-1,3,4-oxadiazole], in series [1], the EC50 came to 1.86 ± 0.23 µg/mL (≈ 7.32 µM), the inhibition at 100 µg/mL was found to be 100% and the inhibition at 200 µg/mL was found to be 100%. In series [2], the EC50 stood at 85 ± 4.32 µg/mL (≈ 334 µM), the inhibition at 100 µg/mL was 57% and the inhibition at 200 µg/mL stood at 88%. In the series with Ralstonia solanacearum, the EC50 was determined as 13.6 ± 2.12 µg/mL (≈ 53.3 µM), the inhibition at 100 µg/mL was determined as 100% and the inhibition at 200 µg/mL is 100%.
For `CCS(=O)(=O)c1nnc(COc2ccc(F)cc2)o1` [Compound 5I-7, 2-(Ethylsulfonyl)-5-((4-fluorophenoxy)methyl)-1,3,4-oxadiazole], in series [1], a half-maximal response (EC50) required 0.52 ± 0.16 µg/mL (≈ 1.82 µM), the inhibition at 100 µg/mL was 100% and the inhibition at 200 µg/mL came to 100%. Also, in series [2], the response was half-maximal at 52.2 ± 2.14 µg/mL (≈ 182 µM) (EC50), the inhibition at 100 µg/mL was 53% and the inhibition at 200 µg/mL worked out at 65%. In the series on Ralstonia solanacearum, a half-maximal effect (EC50) was put at 7.75 ± 1.01 µg/mL (≈ 27.1 µM), the inhibition at 100 µg/mL is 99% and the inhibition at 200 µg/mL turned out to be 100%.
As for `CCS(=O)(=O)c1nnc(COc2ccc(Cl)cc2Cl)o1` [Compound 5I-8, 2-((2,4-Dichlorophenoxy)methyl)-5-(ethylsulfonyl)-1,3,4-oxadiazole], the results for the inhibition at 100 µg/mL (in series [1]; in series [2]; in the series with Ralstonia solanacearum) were 87%, 36% and 43%, respectively. Further, the inhibition at 200 µg/mL came out at 100% in series [1], 62% in series [2] and 97% with Ralstonia solanacearum.
Consider `O=S(=O)(Cc1ccccc1)c1nnc(COc2ccc(F)cc2)o1` [Compound 5I-9, 2-(Benzylsulfonyl)-5-((4-fluorophenoxy)methyl)-1,3,4-oxadiazole], for which the melting point was 94 to 96 °C. In series [1], the inhibition at 100 µg/mL is 100% and the inhibition at 200 µg/mL was determined as 100%. In addition, in series [2], the inhibition at 100 µg/mL is 50% and the inhibition at 200 µg/mL stood at 72%. In the series with Ralstonia solanacearum, the inhibition at 100 µg/mL was found to be 25% and the inhibition at 200 µg/mL stood at 33%.
`O=S(=O)(Cc1ccccc1)c1nnc(COc2ccc(Cl)cc2)o1` [Compound 5I-10, 2-(Benzylsulfonyl)-5-((4-chlorophenoxy)methyl)-1,3,4-oxadiazole]: the melting point lay in the range of 126 to 128 °C. In series [1], the inhibition at 100 µg/mL stood at 48% and the inhibition at 200 µg/mL came out at 90%. In addition, in series [2], the inhibition at 100 µg/mL amounted to 62% and the inhibition at 200 µg/mL was 74%. For the same molecule, in the series with Ralstonia solanacearum, the inhibition at 100 µg/mL came to 19% and the inhibition at 200 µg/mL was 24%.
On to `O=S(=O)(Cc1ccccc1)c1nnc(COc2ccc(Br)cc2)o1` [Compound 5I-11, 2-(Benzylsulfonyl)-5-((4-bromophenoxy)methyl)-1,3,4-oxadiazole], for which the melting point was 142 to 143 °C. Also, in series [1], the inhibition at 100 µg/mL stood at 38% and the inhibition at 200 µg/mL was 56%. For the same molecule, in series [2], the inhibition at 100 µg/mL came to 16% and the inhibition at 200 µg/mL amounted to 11%. For the same molecule, in the series with Ralstonia solanacearum, the inhibition at 100 µg/mL stood at 13% and the inhibition at 200 µg/mL was 18%.
`O=S(=O)(Cc1ccccc1)c1nnc(COc2ccc(Cl)cc2Cl)o1` [Compound 5I-12, 2-(Benzylsulfonyl)-5-((2,4-dichlorophenoxy)methyl)-1,3,4-oxadiazole] registered a melting point of 121 to 122 °C. In addition, in series [1], the inhibition at 100 µg/mL was found to be 70% and the inhibition at 200 µg/mL amounted to 98%. In addition, in series [2], the inhibition at 100 µg/mL was 23% and the inhibition at 200 µg/mL stood at 26%. In the series with Ralstonia solanacearum, the inhibition at 100 µg/mL turned out to be 20% and the inhibition at 200 µg/mL worked out at 33%.
Turning to `Cc1cc(Cl)ccc1OCc1nnc(S(=O)(=O)Cc2ccccc2)o1` [Compound 5I-13, 2-(Benzylsulfonyl)-5-((4-chloro-2-methylphenoxy)methyl)-1,3,4-oxadiazole], the melting point is 144 to 145 °C. For the same molecule, in series [1], the inhibition at 100 µg/mL came to 13% and the inhibition at 200 µg/mL is 33%. In addition, in series [2], the inhibition at 100 µg/mL was determined as 0% and the inhibition at 200 µg/mL was found to be 7%. In the series on Ralstonia solanacearum, the inhibition at 100 µg/mL amounted to 8% and the inhibition at 200 µg/mL came out at 15%.
Molecule `O=S(=O)(Cc1ccccc1)c1nnc(COc2ccccc2)o1` [Compound 5I-14, 2-(Benzylsulfonyl)-5-(phenoxymethyl)-1,3,4-oxadiazole] displayed a melting point of 95 to 96 °C. In series [1], the inhibition at 100 µg/mL amounted to 78% and the inhibition at 200 µg/mL worked out at 95%. Besides, in series [2], the inhibition at 100 µg/mL is 53% and the inhibition at 200 µg/mL was determined as 76%. For the same molecule, in the series on Ralstonia solanacearum, the inhibition at 100 µg/mL is 37% and the inhibition at 200 µg/mL is 69%.
In turn, `CS(=O)(=O)c1nnc(COc2ccc(F)cc2)s1` [Compound 5II-1, 2-((4-Fluorophenoxy)methyl)-5-(methylsulfonyl)-1,3,4-thiadiazole] showed a melting point of 107 to 109 °C. In series [1], the Inhibition rate is 99%, the inhibition at 100 µg/mL was 92% and the inhibition at 200 µg/mL lay in the range of 84 to 99%. In series [2], the inhibition at 100 µg/mL turned out to be 36% and the inhibition at 200 µg/mL was found to be 40%. Besides, in the series on Ralstonia solanacearum, the inhibition at 100 µg/mL was 49% and the inhibition at 200 µg/mL was found to be 50%.
Consider `CS(=O)(=O)c1nnc(COc2ccc(Cl)cc2)s1` [Compound 5II-2, 2-((4-Chlorophenoxy)methyl)-5-(methylsulfonyl)-1,3,4-thiadiazole], for which the melting point fell in the range of 119 to 120 °C. For the same molecule, in series [1], the Inhibition rate is on record as 84%, the inhibition at 100 µg/mL stood at 73% and the inhibition at 200 µg/mL fell in the range of 84 to 99%. Further, in series [2], the inhibition at 100 µg/mL amounted to 16% and the inhibition at 200 µg/mL was 27%. In the series with Ralstonia solanacearum, the inhibition at 100 µg/mL was 45% and the inhibition at 200 µg/mL was determined as 56%.
The molecule `CS(=O)(=O)c1nnc(COc2ccc(Br)cc2)s1` [Compound 5II-3, 2-((4-Bromophenoxy)methyl)-5-(methylsulfonyl)-1,3,4-thiadiazole] had a melting point of 114 to 115 °C. Further, in series [1], the inhibition at 100 µg/mL was found to be 28% and the inhibition at 200 µg/mL is 30%. Also, in series [2], the inhibition at 100 µg/mL was found to be 18% and the inhibition at 200 µg/mL was found to be 25%. For the same molecule, in the series on Ralstonia solanacearum, the inhibition at 100 µg/mL turned out to be 7% and the inhibition at 200 µg/mL came out at 26%.
`CS(=O)(=O)c1nnc(COc2ccc(Cl)cc2Cl)s1` [Compound 5II-4, 2-((2,4-Dichlorophenoxy)methyl)-5-(methylsulfonyl)-1,3,4-thiadiazole] came in with a melting point of 160 to 162 °C. In addition, in series [1], the inhibition at 100 µg/mL came to 18% and the inhibition at 200 µg/mL is 16%. Moreover, in series [2], the inhibition at 100 µg/mL was determined as 20% and the inhibition at 200 µg/mL came to 23%. For the same molecule, in the series with Ralstonia solanacearum, the inhibition at 100 µg/mL worked out at 15% and the inhibition at 200 µg/mL was 18%.
As to `Cc1cc(Cl)ccc1OCc1nnc(S(C)(=O)=O)s1` [Compound 5II-5, 2-((4-Chloro-2-methylphenoxy)methyl)-5-(methylsulfonyl)-1,3,4-thiadiazole], the melting point fell in the range of 160 to 161 °C. In series [1], the inhibition at 100 µg/mL is 16% and the inhibition at 200 µg/mL stood at 42%. Also, in series [2], the inhibition at 100 µg/mL is 24% and the inhibition at 200 µg/mL is 25%. In the series with Ralstonia solanacearum, the inhibition at 100 µg/mL turned out to be 8% and the inhibition at 200 µg/mL is 9%.
`CCS(=O)(=O)c1nnc(COc2ccc(F)cc2)s1` [Compound 5II-6, 2-(Ethylsulfonyl)-5-((4-fluorophenoxy)methyl)-1,3,4-thiadiazole] showed a melting point of 89 to 90 °C. Moreover, in series [1], the inhibition at 100 µg/mL turned out to be 55% and the inhibition at 200 µg/mL is 65%. For the same molecule, in series [2], the inhibition at 100 µg/mL came to 18% and the inhibition at 200 µg/mL turned out to be 15%. In the series with Ralstonia solanacearum, the inhibition at 100 µg/mL amounted to 12% and the inhibition at 200 µg/mL stood at 7%.
The molecule `CCS(=O)(=O)c1nnc(COc2ccc(Cl)cc2Cl)s1` [Compound 5II-7, 2-((2,4-Dichlorophenoxy)methyl)-5-(ethylsulfonyl)-1,3,4-thiadiazole] yielded a melting point of 127 to 128 °C. Also, in series [1], the inhibition at 100 µg/mL was 13% and the inhibition at 200 µg/mL turned out to be 20%. In series [2], the inhibition at 100 µg/mL stood at 6% and the inhibition at 200 µg/mL was 32%. For the same molecule, in the series on Ralstonia solanacearum, the inhibition at 100 µg/mL amounted to 0% and the inhibition at 200 µg/mL amounted to 0%.
